Assay results from patent US6441027B1, “Method of regulating the female reproductive system through angiogenesis inhibitors” (Children's Medical Center Corporation, priority 1996, dated 2002).
Entries after “also recorded” stand apart in the source; their conditions may differ.

Test system: inseminated mice
Assay: Gross morphology and hematoxylin/eosin histology of gravid uteri, embryos and ovaries
Assay type: in vivo, mouse
Protocol: FIGS. 1A-1I show the gross morphology of gravid mouse uteri. Inseminated mice were treated with AGM-1470 30 mg/kg s.c. or saline on Embryonic day 1 (E1) or E7, and mice were sacrificed at E9, 13 or 18. FIG. 1A, 1B, and 1C show the normal pattern of growth of fetuses on E9, E13 and E18.
FIGS. 2A-2F show hematoxylin/eosin staining of mouse embryos on E9. Inseminated mice were treated with AGM-1470 […] s.c. or saline on E1 or E7, and mice were sacrificed at E9. Uteri were resected and stained with hematoxylin/eosin as described in the material and methods section. […] (P−placenta, D=decidua).
Gravid uteri and ovaries were resected enbloc, weighed, fixed and Carnoy's fixative, and embedded in paraffin according to standard histological techniques. Sections were cut at 6 to 10 micrometers and stained with hematoxylin and eosin. When AGM-1470 was injected on E14, fetuses were allowed to come to term.

With `CO[C@@H]1[C@H](OC(=O)NC(=O)CCl)CC[C@]2(CO2)[C@H]1[C@@]1(C)O[C@@H]1CC=C(C)C` [AGM-1470, O-chloroacetylcarbamoyl fumagillol] the “placental development (histology)” value (30 mg/kg on E1) was “failure of placental development”, the “placental development (histology)” value (30 mg/kg on E7) was “inhibition of placental and fetal development; also recorded: decrease in nucleated red blood cells and labyrinth structure in the placenta” and the “gross morphology of gravid uteri” value (30 mg/kg s.c. on E7) was “hemorrhage around the implantation sites by E13; also recorded: resorption by E18”. The “fetal histology on E9” value (both treated groups (E1 or E7)) was “Fetal disorganization”, the “embryo histology on E9” value (injected on E1) was “small, disorganized embryo” and the “nucleated red blood cells in E9 embryos” value (injected on E7) was “reduced nucleated red blood cells in the embryo; also recorded: marked decrease in nucleated red blood cells”. The “histology of the ovaries” value (single dose on E1 or E7, all time points) was “appeared normal” and the “gross morphology of gravid uteri” value (treated on E1, after E9) was “failure of further growth with resorption”.
